# Results: patent US9717748B2, “Compositions and methods for treating an infection” (CMPD LICENSING, LLC, priority 2015, dated 2017)
# Like-named read-outs stand apart in the source and are kept apart here.
# Tests used:
# Enterococcus faecalis = test: Expected efficacy of antibiotic agents; settings: Gram: pos
# Neisseria gonorrhoeae = test: Expected efficacy of antibiotic agents; settings: Gram: neg
# Neisseria meningitidis = test: Expected efficacy of antibiotic agents; settings: Gram: neg
# [1] = tested on: Staphylococcus aureus (MSSA); test: Expected efficacy of antibiotic agents; settings: Gram: pos
# Campylobacter jejuni = test: Expected efficacy of antibiotic agents; settings: Gram: neg
# Proteus mirabilis = test: Expected efficacy of antibiotic agents; settings: Gram: neg
# Shigella sonnei = test: Expected efficacy of antibiotic agents; settings: Gram: neg
# [2] = tested on: Acinetobacter calcoaceticus; test: Expected efficacy of antibiotic agents; settings: Gram: neg
# Mycoplasma pneumoniae = test: Expected efficacy of antibiotic agents; settings: Gram: n/a
# Enterococcus faecium = test: Expected efficacy of antibiotic agents; settings: Gram: pos
# Peptostreptococcus = test: Expected efficacy of antibiotic agents; settings: Gram: pos
# Shigella flexneri = test: Expected efficacy of antibiotic agents; settings: Gram: neg
# Acinetobacter lwoffii = test: Expected efficacy of antibiotic agents; settings: Gram: neg
# Enterobacter cloacae = test: Expected efficacy of antibiotic agents; settings: Gram: neg
# Chlamydia pneumoniae = test: Expected efficacy of antibiotic agents; settings: Gram: n/a
# Enterobacter sakazakii = test: Expected efficacy of antibiotic agents; settings: Gram: neg
# Chlamydia trachomatis = test: Expected efficacy of antibiotic agents; settings: Gram: n/a
# Citrobacter freundii = test: Expected efficacy of antibiotic agents; settings: Gram: neg
# Vibrio cholerae = test: Expected efficacy of antibiotic agents; settings: Gram: neg
# Clostridium difficile = test: Expected efficacy of antibiotic agents; settings: Gram: anaer
# Pseudomonas aeruginosa = test: Expected efficacy of antibiotic agents; settings: Gram: neg
# Bordetella pertussis = test: Expected efficacy of antibiotic agents; settings: Gram: neg
# Moraxella catarrhalis = test: Expected efficacy of antibiotic agents; settings: Gram: neg
# Acinetobacter baumannii = test: Expected efficacy of antibiotic agents; settings: Gram: neg
# Bacteroides fragilis = test: Expected efficacy of antibiotic agents; settings: Gram: anaer
# [3] = tested on: Klebsiella (Calymmato-bacterium) granulomatis; test: Expected efficacy of antibiotic agents; settings: Gram: neg
# Haemophilus ducreyi = test: Expected efficacy of antibiotic agents; settings: Gram: neg
# [4] = tested on: Viridans group streptococci; test: Expected efficacy of antibiotic agents; settings: Gram: pos
# Diphtheroids = test: Expected efficacy of antibiotic agents; settings: Gram: pos
# [5] = tested on: Methicillin resistant staphaureus (MRSA); test: Expected efficacy of antibiotic agents; settings: Gram: pos
# Shigella dysenteriae = test: Expected efficacy of antibiotic agents; settings: Gram: neg
# Streptococcus pneumoniae = test: Expected efficacy of antibiotic agents; settings: Gram: pos
# Klebsiella pneumoniae = test: Expected efficacy of antibiotic agents; settings: Gram: neg
# Streptococcus agalactiae = test: Expected efficacy of antibiotic agents; settings: Gram: pos
# Streptococcus pyogenes = test: Expected efficacy of antibiotic agents; settings: Gram: pos
# Corynebacterium jeikeium = test: Expected efficacy of antibiotic agents; settings: Gram: pos
# [6] = tested on: Corynebacterium urealyticum; test: Expected efficacy of antibiotic agents; settings: Gram: pos
# [7] = tested on: Staphylococcus epidermidis; test: Expected efficacy of antibiotic agents; settings: Gram: pos
# Providencia rettgeri = test: Expected efficacy of antibiotic agents; settings: Gram: neg
# Escherichia coli = test: Expected efficacy of antibiotic agents; settings: Gram: neg
# Salmonella typhi = test: Expected efficacy of antibiotic agents; settings: Gram: neg
# Pseudomonas fluorescens = test: Expected efficacy of antibiotic agents; settings: Gram: neg
# Morganella morganii = test: Expected efficacy of antibiotic agents; settings: Gram: neg
# Klebsiella oxytoca = test: Expected efficacy of antibiotic agents; settings: Gram: neg
# Serratia marcescens = test: Expected efficacy of antibiotic agents; settings: Gram: neg
# Haemophilus influenzae = test: Expected efficacy of antibiotic agents; settings: Gram: neg
# Bartonella bacilliformis = test: Expected efficacy of antibiotic agents; settings: Gram: neg
# Shigella boydii = test: Expected efficacy of antibiotic agents; settings: Gram: neg
# Enterobacter aerogenes = test: Expected efficacy of antibiotic agents; settings: Gram: neg
# Proteus vulgaris = test: Expected efficacy of antibiotic agents; settings: Gram: neg
# [8] = tested on: Haemophilus parainfluenzae; test: Expected efficacy of antibiotic agents; settings: Gram: neg
# Citrobacter diversus = test: Expected efficacy of antibiotic agents; settings: Gram: neg
# Providencia stuartii = test: Expected efficacy of antibiotic agents; settings: Gram: neg
compound,measurement,setting,value
NC[C@H]1O[C@H](O[C@H]2[C@H](O)[C@@H](O[C@H]3O[C@H](CO)[C@@H](O)[C@H](N)[C@H]3O)[C@H](N)C[C@@H]2N)[C@H](N)C[C@@H]1O [Tobramycin],Expected efficacy against Yersinia pestis,Yersinia pestis; Gram: neg,yes
same,Expected efficacy against Enterococcus faecalis,Enterococcus faecalis,no
same,Expected efficacy against Neisseria gonorrhoeae,Neisseria gonorrhoeae,no
same,Expected efficacy against Neisseria meningitidis,Neisseria meningitidis,no
same,Expected efficacy against Staphylococcus aureus (MSSA),[1],no
same,Expected efficacy against Campylobacter jejuni,Campylobacter jejuni,yes
same,Expected efficacy against Proteus mirabilis,Proteus mirabilis,yes
same,Expected efficacy against Shigella sonnei,Shigella sonnei,yes
same,Expected efficacy against Acinetobacter calcoaceticus,[2],no
same,Expected efficacy against Mycoplasma pneumoniae,Mycoplasma pneumoniae,no
same,Expected efficacy against Enterococcus faecium,Enterococcus faecium,no
same,Expected efficacy against Peptostreptococcus,Peptostreptococcus,no
same,Expected efficacy against Shigella flexneri,Shigella flexneri,yes
same,Expected efficacy against Acinetobacter lwoffii,Acinetobacter lwoffii,no
same,Expected efficacy against Enterobacter cloacae,Enterobacter cloacae,yes
same,Expected efficacy against Clostridium perfringens,Clostridium perfringens; Gram: anaer,no
same,Expected efficacy against Chlamydia pneumoniae,Chlamydia pneumoniae,no
same,Expected efficacy against Enterobacter sakazakii,Enterobacter sakazakii,yes
same,Expected efficacy against Chlamydia trachomatis,Chlamydia trachomatis,no
same,Expected efficacy against Citrobacter freundii,Citrobacter freundii,yes
same,Expected efficacy against Legionella pneumophila,Legionella pneumophila; Gram: neg,no
same,Expected efficacy against Vibrio cholerae,Vibrio cholerae,no
same,Expected efficacy against Clostridium difficile,Clostridium difficile,no
same,Expected efficacy against Pseudomonas aeruginosa,Pseudomonas aeruginosa,yes
same,Expected efficacy against Bordetella pertussis,Bordetella pertussis,no
same,Expected efficacy against Moraxella catarrhalis,Moraxella catarrhalis,yes
same,Expected efficacy against Acinetobacter baumannii,Acinetobacter baumannii,no
same,Expected efficacy against Bacteroides fragilis,Bacteroides fragilis,no
same,Expected efficacy against Klebsiella (Calymmato-bacterium) granulomatis,[3],yes
same,Expected efficacy against Haemophilus ducreyi,Haemophilus ducreyi,yes
same,Expected efficacy against Viridans group streptococci,[4],no
same,Expected efficacy against Chlamydia psittaci,Chlamydia psittaci; Gram: n/a,no
same,Expected efficacy against Diphtheroids,Diphtheroids,no
same,Expected efficacy against Methicillin resistant staphaureus (MRSA),[5],no
same,Expected efficacy against Shigella dysenteriae,Shigella dysenteriae,yes
same,Expected efficacy against Streptococcus pneumoniae,Streptococcus pneumoniae,no
same,Expected efficacy against Klebsiella pneumoniae,Klebsiella pneumoniae,yes
same,Expected efficacy against Streptococcus agalactiae,Streptococcus agalactiae,no
same,Expected efficacy against Streptococcus pyogenes,Streptococcus pyogenes,no
same,Expected efficacy against Corynebacterium jeikeium,Corynebacterium jeikeium,no
same,Expected efficacy against Corynebacterium urealyticum,[6],no
same,Expected efficacy against Staphylococcus epidermidis,[7],no
CN[C@H](CC(C)C)C(=O)N[C@H]1C(=O)N[C@@H](CC(N)=O)C(=O)N[C@H]2C(=O)N[C@H]3C(=O)N[C@H](C(=O)N[C@H](C(=O)O)c4cc(O)cc(O)c4-c4cc3ccc4O)[C@H](O)c3ccc(c(Cl)c3)Oc3cc2cc(c3O[C@@H]2O[C@H](CO)[C@@H](O)[C@H](O)[C@H]2O[C@H]2C[C@](C)(N)[C@H](O)[C@H](C)O2)Oc2ccc(cc2Cl)[C@H]1O [Vancomycin],Expected efficacy against Yersinia pestis,Yersinia pestis,no
same,Expected efficacy against Francisella tularensis,Francisella tularensis,no
same,Expected efficacy against Neisseria gonorrhoeae,Neisseria gonorrhoeae,no
same,Expected efficacy against Neisseria meningitidis,Neisseria meningitidis,no
same,Expected efficacy against Staphylococcus aureus (MSSA),[1],yes
same,Expected efficacy against Campylobacter jejuni,Campylobacter jejuni,no
same,Expected efficacy against Proteus mirabilis,Proteus mirabilis,no
same,Expected efficacy against Providencia rettgeri,Providencia rettgeri,no
same,Expected efficacy against Shigella sonnei,Shigella sonnei,no
same,Expected efficacy against Escherichia coli,Escherichia coli,no
same,Expected efficacy against Acinetobacter calcoaceticus,[2],no
same,Expected efficacy against Salmonella typhi,Salmonella typhi,no
same,Expected efficacy against Mycoplasma pneumoniae,Mycoplasma pneumoniae,no
same,Expected efficacy against Pseudomonas fluorescens,Pseudomonas fluorescens,no
same,Expected efficacy against Enterococcus faecium,Enterococcus faecium,"yes, not VRE"
same,Expected efficacy against Morganella morganii,Morganella morganii,no
same,Expected efficacy against Peptostreptococcus,Peptostreptococcus,yes
same,Expected efficacy against Shigella flexneri,Shigella flexneri,no
same,Expected efficacy against Klebsiella oxytoca,Klebsiella oxytoca,no
same,Expected efficacy against Serratia marcescens,Serratia marcescens,no
same,Expected efficacy against Acinetobacter lwoffii,Acinetobacter lwoffii,no
same,Expected efficacy against Enterobacter cloacae,Enterobacter cloacae,no
same,Expected efficacy against Haemophilus influenzae,Haemophilus influenzae,no
same,Expected efficacy against Clostridium perfringens,Clostridium perfringens,no
same,Expected efficacy against Rickettsiae,Rickettsiae,no
same,Expected efficacy against Chlamydia pneumoniae,Chlamydia pneumoniae,no
same,Expected efficacy against Enterobacter sakazakii,Enterobacter sakazakii,no
same,Expected efficacy against Chlamydia trachomatis,Chlamydia trachomatis,no
same,Expected efficacy against Citrobacter freundii,Citrobacter freundii,no
same,Expected efficacy against Legionella pneumophila,Legionella pneumophila,no
same,Expected efficacy against Vibrio cholerae,Vibrio cholerae,no
same,Expected efficacy against Clostridium difficile,Clostridium difficile,yes
same,Expected efficacy against Pseudomonas aeruginosa,Pseudomonas aeruginosa,no
same,Expected efficacy against Bordetella pertussis,Bordetella pertussis,no
same,Expected efficacy against Bartonella bacilliformis,Bartonella bacilliformis,no
same,Expected efficacy against Moraxella catarrhalis,Moraxella catarrhalis,no
same,Expected efficacy against Acinetobacter baumannii,Acinetobacter baumannii,no
same,Expected efficacy against Bacteroides fragilis,Bacteroides fragilis,no
same,Expected efficacy against Shigella boydii,Shigella boydii,no
same,Expected efficacy against Klebsiella (Calymmato-bacterium) granulomatis,[3],no
same,Expected efficacy against Haemophilus ducreyi,Haemophilus ducreyi,no
same,Expected efficacy against Viridans group streptococci,[4],yes
same,Expected efficacy against Enterobacter aerogenes,Enterobacter aerogenes,no
same,Expected efficacy against Chlamydia psittaci,Chlamydia psittaci,no
same,Expected efficacy against Diphtheroids,Diphtheroids,yes
same,Expected efficacy against Proteus vulgaris,Proteus vulgaris,no
same,Expected efficacy against Brucella species,Brucella species,no
same,Expected efficacy against Shigella dysenteriae,Shigella dysenteriae,no
same,Expected efficacy against Klebsiella pneumoniae,Klebsiella pneumoniae,no
same,Expected efficacy against Streptococcus agalactiae,Streptococcus agalactiae,yes
same,Expected efficacy against Haemophilus parainfluenzae,[8],no
same,Expected efficacy against Streptococcus pyogenes,Streptococcus pyogenes,yes
same,Expected efficacy against Citrobacter diversus,Citrobacter diversus,no
same,Expected efficacy against Providencia stuartii,Providencia stuartii,no
same,Expected efficacy against Corynebacterium jeikeium,Corynebacterium jeikeium,yes
same,Expected efficacy against Corynebacterium urealyticum,[6],yes
same,Expected efficacy against Staphylococcus epidermidis,[7],yes
Colistimethate,Expected efficacy against Enterococcus faecalis,Enterococcus faecalis,no
same,Expected efficacy against Neisseria gonorrhoeae,Neisseria gonorrhoeae,no
same,Expected efficacy against Neisseria meningitidis,Neisseria meningitidis,no
same,Expected efficacy against Staphylococcus aureus (MSSA),[1],yes
same,Expected efficacy against Proteus mirabilis,Proteus mirabilis,no
same,Expected efficacy against Providencia rettgeri,Providencia rettgeri,no
same,Expected efficacy against Mycoplasma pneumoniae,Mycoplasma pneumoniae,no
same,Expected efficacy against Enterococcus faecium,Enterococcus faecium,no
same,Expected efficacy against Peptostreptococcus,Peptostreptococcus,no
same,Expected efficacy against Serratia marcescens,Serratia marcescens,no
same,Expected efficacy against Enterobacter cloacae,Enterobacter cloacae,yes
same,Expected efficacy against Chlamydia pneumoniae,Chlamydia pneumoniae,no
same,Expected efficacy against Enterobacter sakazakii,Enterobacter sakazakii,yes
same,Expected efficacy against Chlamydia trachomatis,Chlamydia trachomatis,no
same,Expected efficacy against Legionella pneumophila,Legionella pneumophila; Gram: neg,no
same,Expected efficacy against Vibrio cholerae,Vibrio cholerae,no
same,Expected efficacy against Clostridium difficile,Clostridium difficile,no
same,Expected efficacy against Pseudomonas aeruginosa,Pseudomonas aeruginosa,yes
same,Expected efficacy against Bordetella pertussis,Bordetella pertussis,no
same,Expected efficacy against Moraxella catarrhalis,Moraxella catarrhalis,no
same,Expected efficacy against Bacteroides fragilis,Bacteroides fragilis,no
same,Expected efficacy against Klebsiella (Calymmato-bacterium) granulomatis,[3],yes
same,Expected efficacy against Viridans group streptococci,[4],no
same,Expected efficacy against Chlamydia psittaci,Chlamydia psittaci; Gram: n/a,no
same,Expected efficacy against Diphtheroids,Diphtheroids,no
same,Expected efficacy against Methicillin resistant staphaureus (MRSA),[5],no
same,Expected efficacy against Proteus vulgaris,Proteus vulgaris,no
same,Expected efficacy against Brucella species,Brucella species; Gram: neg,no
same,Expected efficacy against Streptococcus pneumoniae,Streptococcus pneumoniae,no
same,Expected efficacy against Klebsiella pneumoniae,Klebsiella pneumoniae,yes
same,Expected efficacy against Streptococcus agalactiae,Streptococcus agalactiae,no
same,Expected efficacy against Haemophilus parainfluenzae,[8],no
same,Expected efficacy against Streptococcus pyogenes,Streptococcus pyogenes,no
same,Expected efficacy against Providencia stuartii,Providencia stuartii,no
same,Expected efficacy against Corynebacterium jeikeium,Corynebacterium jeikeium,no
same,Expected efficacy against Corynebacterium urealyticum,[6],no
same,Expected efficacy against Staphylococcus epidermidis,[7],no
